What was measured:
[1] = test system: T4L-β2AR-Gs or β2AR-Gs complexes; test: purification and stability of T4L-β2AR-Gs or β2AR-Gs complexes (analytical gel filtration, negative staining EM); set-up: species or system human
Description: The ability of PSE-C11 or TPS-E10L to purify and stabilize T4L-β2AR-Gs or β2AR-Gs complexes was measured using electron microscopy (EM) analysis.
Specifically, measurement of the ability of PSE-C11 for TPS-E10L to purify and stabilize T4L-β2AR-Gs or β2AR-Gs complexes was performed as follows. 100 μM T4L-β2AR solubilized in 0.1 wt % DDM was mixed with 120 μM Gs heterotrimers for 30 minutes. 0.5 units of apyrase (NEB) and 2 mM MgCl2 were added to the mixture, followed by a 1-hour incubation to form complexes. 1 wt % PSE-C11 or TPS-E10L was respectively added to the mixture to achieve a final concentration of 0.8%, and incubated for 30 minutes to allow DDM to be exchanged with PSE-C11 or TPS-E10L. […] Finally, proteins were eluted with a 0.05% (100×CMC) PSE-C11 or TPS-E10L buffer. Gel filtration was performed using a running buffer (20 mM HEPES (pH 7.5), 100 mM NaCl, 0.005% PSE-C11 or TPS-E10L, 1 μM BI, 100 μM TCEP) to purify T4L-β2AR-Gs complexes. To measure the stability of β2AR-Gs complexes present in PSE-C11 or TPS-E10L, analytical gel filtration was performed with running buffers of the same formulation at 12 hours, 1 day, 3 days, 7 days, and 15 days. After a 15 day-incubation, analytical gel filtration was performed using an amphiphilic compound pre-buffer having the same formulation as above without PSE-C11 or TPS-E10L.
In addition, negative staining EM analysis for T4L-β2AR-Gs or β2AR-Gs complexes present in PSE-C11 was performed as follows. Samples containing T4L-β2AR-Gs or β2AR-Gs were prepared to perform electron microscopy analysis using a conventional negative staining protocol (see Peisley, A. et al., G Protein-Coupled Receptors in Drug Discovery: Methods and Protocols, Methods in Molecular Biology, 1335, 29-38 (2015)), and imaging was performed by operating a Tecnai T12 electron microscope at 120 kV at room temperature. Images were recorded with a Gatan US4000 CCD camera at a 71,138×magnification with a defocus value of ˜[…].

[2] = molecular target: T1, uric acid-xanthine/H+ symporter (UapA) (Emericella nidulans, UniProt Q07307, G411V); test: thermal stability of UapA by CPM analysis; set-up: species or system Aspergillus nidulans; details: CMC+0.04 wt % and CMC+0.2 wt %, 40° C., 120 minutes
T1 construct: GFP; made in house; host or cells: Saccharomyces cerevisiae FGY217
T1 sequence (Q07307 12-574 G411V): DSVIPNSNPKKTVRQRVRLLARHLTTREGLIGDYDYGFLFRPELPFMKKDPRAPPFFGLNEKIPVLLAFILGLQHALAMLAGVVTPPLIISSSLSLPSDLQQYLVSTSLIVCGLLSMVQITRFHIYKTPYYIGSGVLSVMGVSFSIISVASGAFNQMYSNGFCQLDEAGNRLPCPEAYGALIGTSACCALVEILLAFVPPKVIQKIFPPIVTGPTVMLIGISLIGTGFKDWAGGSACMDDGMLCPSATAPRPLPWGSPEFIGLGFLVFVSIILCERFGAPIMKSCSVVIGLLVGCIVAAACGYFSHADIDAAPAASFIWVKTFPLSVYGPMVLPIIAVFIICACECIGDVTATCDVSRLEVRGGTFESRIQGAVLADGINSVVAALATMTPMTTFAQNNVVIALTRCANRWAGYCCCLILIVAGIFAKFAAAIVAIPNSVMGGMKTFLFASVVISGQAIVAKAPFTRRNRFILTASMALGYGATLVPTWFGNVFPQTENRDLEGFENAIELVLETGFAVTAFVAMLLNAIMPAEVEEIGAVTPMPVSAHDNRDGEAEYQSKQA
Description: The ability of TPSs (TPS-As, TPS-Es and TPS-ELs) to stabilize the structure of uric acid-xanthine/H+ symporter (UapA) isolated from Aspergillus nidulans was measured. The structural stability of UapA was evaluated using a sulfhydryl-specific fluorophore, N-[4-(7-diethylamino-4-methyl-3-coumarinyl)phenyl]maleimide (CPM).
Specifically, UapAG411V1-11 (hereinafter, referred to as ‘UapA’) was expressed in a Saccharomyces cerevisiae FGY217 strain as a GFP fusion protein, and was isolated using a sample buffer (20 mM Tris (pH 7.5), 150 mM NaCl, 0.03% DDM, 1 mM xanthine). The transporter was concentrated to about 10 mg/mL using a 100 kDa molecular weight cut-off filter (Millipore). The transporter was diluted with a CMC+0.04 wt % or CMC+0.2 wt % buffer at a ratio of 1:150 in a Greiner 96-well plate containing one of TPS-As (TPS-A6, TPS-A7 or TPS-A8), TPS-Es (TPS-E6, TPS-E7 or TPS-E8), TPS-ELs (TPS-E8L, TPS-E9L, TPS-E10L or TPS-E11L), MNG-3 or DDM (control group). […] During incubation, fluorescence emission intensity was monitored using a microplate spectrophotometer set at excitation and emission wavelengths of 387 and 463 nm, respectively. The maximum value of fluorescence intensity was used to calculate the relative percentage of folded transporters during the incubation period. […]

Structure (SMILES)	stability of β2AR-Gs complexes (analytical gel filtration) ([1]; after incubation for 15 and 17 days)	stability of complexes ([1]; buffer without the amphipathic compound as eluent)	maintaining folding state of UapA (CPM) [2]
CCCCCCCCCCCOCC(COCCCCCCCCCCC)O[C@@H]1OC(CO[C@@H]2OC(CO)[C@@H](O)C(O)C2O)[C@@H](O[C@@H]2OC(CO)[C@@H](O)C(O)C2O)C(O[C@@H]2OC(CO)[C@@H](O)C(O)C2O)C1O[C@@H]1OC(CO)[C@@H](O)C(O)C1O (stereo partly drawn) [PSE-C11]	no separation of the complexes was observed at all	completely stable	
CCCCCCCCOCC(COCCCCCCCC)(COCCCCCCCC)CO[C@@H]1OC(CO[C@@H]2OC(CO)[C@@H](O)C(O)C2O)[C@@H](O[C@@H]2OC(CO)[C@@H](O)C(O)C2O)C(O[C@@H]2OC(CO)[C@@H](O)C(O)C2O)C1O[C@@H]1OC(CO)[C@@H](O)C(O)C1O (stereo partly drawn) [TPS-E8]			the most excellent among TPS-As/Es

Reference: patent publication US20190169218A1, “AMPHIPATHIC COMPOUND HAVING NOVEL PENTA-SACCHARIDE HYDROPHILIC GROUP AND USE THEREOF” (Industry-University Cooperation Foundation Hanyang …, priority 2016, published 2019)
